One block for each molecule: values may come before it.
Tests used:
[1] = system: cortisone-induced insulin resistance in Sprague Dawley rats; test: Cortisone induced insulin resistance in rats; type: in vivo, rat; settings: cortisone 30 mg/kg sc + 30 mg/kg po
Procedure: Animals were dosed with cortisone (30 mg/kg sc qd) in combination with test compounds for 6 days and then terminated 27 hours after the final dose of cortisone. A reference standard (Mifepristone) was also included. Cortisone 21-acetate (Sigma C-3130) was supplied by RenaSci and administered using a dose volume of 5 ml/kg via the subcutaneous route as a fine suspension in 1% methylcellulose. […] Mifepristone (Sigma M8046) was provided by RenaSci.
Glucose and insulin determinations were performed on plasma samples obtained from a tail vein bleed taken after a 12 h fast, approximately 27 h after the last cortisone dose. Animals were then terminated and a terminal (cardiac) blood sample taken from which plasma was prepared.
Thirty four male Sprague Dawley rats (weight range 200-250 g) were ordered from Charles River, Margate, Kent, UK. […] Subsequently, animals underwent a 3 day baseline period during which they were dosed once daily with vehicle at t=0 h (07:00). […] Body weight was recorded immediately before dosing began at 07:00 (t=0 h).
On Day 6 of dosing rats were fasted for 12 h beginning at 22:30 (timed to coincide with the Day 7 termination). […] At 10:30 on Day 7, 27 h after the final dose of cortisone, a blood sample (300 μl) was taken from the lateral tail vein into tubes containing EDTA (Sarstedt 16.444). The blood was centrifuged and resultant plasma aliquot stored at −75° C. The animals were euthanized by CO2 asphyxiation followed by cervical dislocation. Terminal blood (approximately 10 ml) was collected by cardiac puncture into tubes containing EDTA (Sarstedt 5 ml 32.332) and then centrifuged and plasma stored at −75° C. The tail vein plasma was analyzed for glucose (n=2) using a commercial clinical reagent (Thermoelectron Infinity glucose reagent (TR15421) and for insulin (n=1) using the Mercodia ultrasensitive rat insulin rat ELISA (10-1251-10).
Plasma glucose and insulin were analyzed by robust regression or general linear model with treatment as a factor and bleeding order and baseline body weight as covariates. A log transformation was used if appropriate. Appropriate multiple comparison tests (two-tailed) were used to determine significant differences from the vehicle group and from the Cortisone group. P<0.05 was considered to be statistically significant.

C57/Bl6J DIO mice [2] = test: Increasing dosages of Compound 72 for 7 days in diet-induced obesity mouse model; type: in vivo; settings: positive control 30 mg/kg QD PO 7 days
Text: (§1) Male C57/Bl6J DIO mice were obtained from The Jackson Laboratory (Sacramento, Calif.). […] Animals were accustomed to these conditions for at least 2 weeks before experimentation and used at approximately 24 weeks of age.
(§2) Significance was accepted when p<0.05.
Male C57/Bl6J DIO mice were obtained from The Jackson Laboratory (Sacramento, Calif.). […] Animals were accustomed to these conditions for at least 2 weeks before experimentation and used at approximately 26 weeks of age.

[3] = system: db/db mouse model of type II diabetes; settings: db/db mice, positive control 30 mg/kg QD PO 7 days
Procedure: Male db/db mice homozygous for Lepr^db (6 weeks of age), were obtained from The Jackson Laboratory (Bar Harbor, Me.). Mice were group housed on a normal light/dark cycle (lights on: 07:00-19:00 h) with ad libitum access to a standard pelleted mouse diet and water. Animals were accustomed to these conditions for 2 weeks before experimentation. […] At 10:30 pm on the evening prior to endpoint measurement, mice were placed into clean cages and given free access to water, but not food for a period of 12 hours before the fasting blood glucose measurement. On the final day of the study, animals were dosed as normal, and then underwent a tail cut injury 2 hours prior to measurement of fasting blood glucose, to allow recovery from any stress the procedure might cause. Fasting blood glucose (FBG) was assessed from the animals at 10:30 am using an AlphaTRAK glucometer (Abbott Laboratories, USA). Following the FBG measurement blood was collected from each mouse, using a tail milking technique, into a capillary tube. Capillary tubes were centrifuged in a hematocrit (BD Triac 0200) and the resultant plasma transferred to an eppendorff. This sample, labelled as t=Ohr, was frozen at −80° C. to allow later measurement of insulin. At 11:30 am each animal was dosed with 0.5 g/kg of glucose, then blood glucose was measured at t=15, 30, 60, 90 and 120 minutes after glucose load. At the end of the OGTT blood was collected for a t=2 hr insulin determination as described above.
Fasting blood glucose values and glucose measurements taken during the OGTT were averaged and graphed (GraphPad Prism, GraphPad Software, La Jolla, Calif.). The area under the curve (AUC) was calculated for each individual animal. Plasma insulin levels were determined using an Ultrasensitive Insulin ELISA (ALPCO, Salem, N.H.). […] Insulin data was also represented in GraphPad Prism format. Statistical analysis was performed using one-way ANOVA followed by the appropriate post-test. Significance was accepted when p<0.05. Data are presented as mean and S.E.M.

C57/Bl6J DIO mice [4] = test: 7 day dosing in diet-induced obesity (DIO) mouse model; type: in vivo
Text: as §1, §2

[5] = system: core clock gene mRNAs in livers of ICR mice; test: Four day study, liver clock gene mRNA by RT-qPCR, ICR mice; type: in vivo, mouse; settings: 50 mg/kg PO BID 4 days; for liver Per2 expression: ICR mice, ZT6
Procedure: Male ICR mice (weighing 30-35 g), obtained from Charles River Laboratories (Hollister, CA), were used for the experiment following at least 3 days of acclimation. Mice were dosed with vehicle (WFI or 10% Kolliphor) or compound (50 mg/kg, dose volume 5 mL/kg, PO) for 4 days BID (twice a day), beginning in the afternoon of the first day. The last dose of compound or vehicle was administered on the morning of harvest. On the day of harvest (6 hours following the final dose), mice were euthanized by CO2 asphyxiation and 50 mg of liver tissue was excised and placed in a tube containing 500 μl of RNA later.
E.Z.N.A.® HP Total RNA Isolation Kits (R6812-01 and the protocol described in the Manual, Revised 2010) were utilized to prepare and isolate RNA from the liver samples. To prepare the RNA samples, 10-30 mg of sample was removed from RNA-Later and placed in a 1.5 ml microfuge tube. GTC lysis buffer (700 μl) was added to the tissue, which was homogenized with a rotor-stator homogenizer (e.g. Tissue-Tearor, Model #985370 BioSpec Products with 4.5 mm probe, Cat. #985370-04), and then centrifuged at full speed (>13,000×g) for 5 minutes. The cleared supernatant was transferred by pipetting to a DNA Clearance Column Pre-inserted in a 2 mL Collection Tube. The assembled column was centrifuged at 13,000×g for 1 minute, and the flow-through was saved. An equal volume (700 μl) of 70% ethanol was added to the lysate and mixed. The sample was then applied to a HiBind RNA spin column placed into a 2 ml collection tube, which was centrifuged at 10,000×g for 60 seconds at room temperature. RNA Wash Buffer I (250 μl) was added by pipetting directly onto a new HiBind RNA column inserted in a 2 ml collection tube. The assembled column was centrifuged at 10,000×g for 60 seconds. The RNA column was placed into a new 2 ml collection tube. DNase I stock solution is pipetted (75 μl) directly onto the surface of the HiBind RNA resin in each column (Using DNAse Digestion with RNase Free DNase Set (E1091): for each HiBind RNA column, the DNase I stock solution was prepared as followed: E.Z.N.A.® DNase I Digestion Buffer 73.5μl, RNase Free DNase I (20 Kunitz/μl) 1.5 μl=Total Volume 75 μl.). The column with bound RNA was incubated at room temperature (25-30° C.) for 15 minutes. RNA Wash Buffer I (500 μl) was added to the column and placed on a bench top for 2 minutes. After centrifuging at 10,000×g for 60 seconds, discarding the flow-through, 500 μl of RNA Wash Buffer II was added and centrifuged at 10,000×g for 60 seconds. Another 500 μl of RNA Wash Buffer II was added and the column assembly was centrifuged at 10,000×g for 60 seconds. The column was centrifuged for 2 minutes at maximum speed to completely dry the HiBind matrix. The column was placed in a clean 1.5 ml microcentrifuge tube and 40-70 μl of molecular biology grade water is added. After sitting for 1 minute, the column was centrifuged for 2 minutes at maximum speed to elute the RNA. The isolated RNA was collected into the collection tube.
RediPlate 96 RiboGreen RNA Quantification Kit (Invitrogen) RediPlate standard curve was prepared by transferring 20 μl reconstituted RNA standard to a RediPlate well reconstituted in 180 μl RediPlate TE buffer. For liver RNAs prepared from 30-100 mg of tissue using a kit similar to the Omega Bio-Tek HP Total RNA Kit and eluted in RNAse-free water in a volume of 50 μl (microliters), 5 μl of the total RNA is diluted in 195 μl of RediPlate TE buffer (1:40 dilution of RNA), mix. After transferring 5 μl to RediPlate well reconstituted in 195 μl TE buffer and incubating 10 min. at RT, Fluorescence Intensity of wells with standards and samples were read in a Tecan M200 with Excitation set at 480 nm and Emission set at 520 nm with the gain set to −70%. Alternatively, one can use the FlexStation 3 with Ex 488 nm and Em 525 nm and a Cutoff of 515 nm.

[6] = system: stable U20S reporter cells harboring Per2-dLuc; test: Per2 assay for evaluating the potency of test compounds (circadian luciferase reporter); type: cell-based; settings: amplitude of Per2-dLuc luminescence vs log concentration
Procedure, shortened: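 U2OS Per2-dLuc cells grown 48 h at 37 °C, then synchronized with 5 μM forskolin plus 1 mM luciferin and dosed with 3-fold compound dilutions.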

Compound: CC#C[C@]1(O)CC[C@H]2[C@@H]3CCC4=CC(=O)CCC4=C3[C@@H](c3ccc(N(C)C)cc3)C[C@@]21C [Mifepristone, mifepristone, reference compound]
HOMA-IR ([1]; insulin resistant rats): 29.99+/−2.54 units
fasted plasma insulin ([1]; rats): 3.62 ± 0.29 ng/mL
fasted plasma glucose ([1]; rats, unit printed as ng/mL): 7.43 ± 0.27 ng/mL

Compound: CN(CCOc1ccc(CC2SC(=O)NC2=O)cc1)c1ccccn1 (centres unmarked) [Rosiglitazone, reference compound]
fasting blood glucose (C57/Bl6J DIO mice [2]): 161.1 ± 8.06 mg/dL
HOMA-IR [3]: 50.58+/−3.52 units
fasting blood glucose [3]: 280.4 ± 13.66 mg/dL
plasma insulin at t=0 [3]: 3.05 ± 0.14 ng/mL
plasma insulin at t=2 hr [3]: 2.28 ± 0.08 ng/mL
HOMA-IR (C57/Bl6J DIO mice [4]; 30 mg/kg PO 7 days): 24.60+/−1.42 units
plasma insulin at t=0 (C57/Bl6J DIO mice [4]; 30 mg/kg PO 7 days): 2.70 ± 0.12 ng/mL
plasma insulin at t=2 hr (C57/Bl6J DIO mice [4]; 30 mg/kg PO 7 days): 2.30 ± 0.06 ng/mL
fasting blood glucose (C57/Bl6J DIO mice [4]; positive control 30 mg/kg PO 7 days): 153.9 ± 5.05 mg/dL

Compound: COC1CCCN(CC(O)Cn2c3ccc(F)cc3c3cc(F)ccc32)C1=O (centres unmarked) [Compound 57, 1-(3-(3,6-difluoro-9H-carbazol-9-yl)-2-hydroxypropyl)-3-methoxypiperidin-2-one]
increase in Bmal1 mRNA at ZT6 ([5]; ICR mice liver): ≥ 2 fold
liver Per2 expression [5]: suppression
EC50 [6]: 329 nM

EC50 [6]: 120 nM
Compound: O=C1C2CCC(C2)N1CC(O)Cn1c2ccc(F)cc2c2cc(F)ccc21 (centres unmarked) [Compound 48, 2-(3-(3,6-difluoro-9H-carbazol-9-yl)-2-hydroxypropyl)-2-azabicyclo[2.2.1]heptan-3-one]
Cry2 transcripts ([5]; ICR mice liver): decrease
increase in Bmal1 mRNA at ZT6 ([5]; ICR mice liver): 8 fold
liver Per2 expression [5]: suppression

Compound: CC(O)(CN1CCC(c2ccccc2)C1=O)Cn1c2ccc(F)cc2c2cc(F)ccc21 (centres unmarked) [Compound 54, 1-(3-(3,6-difluoro-9H-carbazol-9-yl)-2-hydroxy-2-methylpropyl)-3-phenylpyrrolidin-2-one]
EC50 [6]: 808 nM

Compound: CC(O)(CN1CCCN(c2ccccc2)C1=O)Cn1c2ccc(F)cc2c2cc(F)ccc21 (centres unmarked) [Compound 79, 1-(3-(3,6-difluoro-9H-carbazol-9-yl)-2-hydroxy-2-methylpropyl)-3-phenyltetrahydropyrimidin-2(1H)-one]
EC50 [6]: 923 nM

Compound: O=C1N(CC(O)Cn2c3ccc(F)cc3c3cc(F)ccc32)CCN1C1CCCC1 (centres unmarked) [Compound 91, 1-cyclopentyl-3-(3-(3,6-difluoro-9H-carbazol-9-yl)-2-hydroxypropyl)imidazolidin-2-one]
EC50 [6]: 621 nM

Compound: CCC1CCC(=O)N1CC(O)Cn1c2ccc(F)cc2c2cc(F)ccc21 (centres unmarked) [Compound 32, 1-(3-(3,6-difluoro-9H-carbazol-9-yl)-2-hydroxypropyl)-5-ethylpyrrolidin-2-one]
EC50 [6]: 539 nM

Compound: CC(C)C1CCN(CC(O)Cn2c3ccc(F)cc3c3cc(F)ccc32)C1=O (centres unmarked) [Compound 22, 1-(3-(3,6-difluoro-9H-carbazol-9-yl)-2-hydroxypropyl)-3-isopropylpyrrolidin-2-one]
EC50 [6]: 261 nM

Compound: CC1CCCN(CC(O)Cn2c3ccc(F)cc3c3cc(F)ccc32)C1=O (centres unmarked) [Compound 27, 1-(3-(3,6-difluoro-9H-carbazol-9-yl)-2-hydroxypropyl)-3-methylpiperidin-2-one]
EC50 [6]: 478 nM

Compound: CC(O)(CN1CCCC(C2CCC2)C1=O)Cn1c2ccc(F)cc2c2cc(F)ccc21 (centres unmarked) [Compound 52, 3-cyclobutyl-1-(3-(3,6-difluoro-9H-carbazol-9-yl)-2-hydroxy-2-methylpropyl)piperidin-2-one]
EC50 [6]: 1360 nM
